Test results taken from US5719287A, “Intermediates for inhibitors of HIV protease and method of preparation thereof” (Eli Lilly and Company, priority 1995, dated 1998).
Like-named read-outs stand apart in the source and are kept apart here.

Target: T1, HIV-1 protease (Human immunodeficiency virus type 1 group M subtype B, UniProt P04585)
T1 construct: Purified HIV-1 protease was obtained as described below; made in house; host or cells: E. coli K12 L507/pHP10D (NRRL B-18560)
Assay: biochemical
Conditions: for IC50: read-out: Fluorescence Assay IC50 (converted)
Experimental: N^α -Biotin-[…]Ne-FITC)-OH
The purified peptide was labeled as follows with a fluorescent marker at the C-terminal end for use in the assay. N^α -Biotin-Gly-Ser-Gln-Asn-Tyr-Pro-lle-Val-Gly-Lys-OH (1.206 g, 0.936 mmoles) was dissolved in 100 mL of 0.1M sodium borate, pH 9.5 with stirring. Then, 3 g of fluorescein isothiocyanate (7.7 mmol) was dissolved in 15 mL dimethyl sulfoxide and the solution added to the reaction in 10 equal portions over the course of a two hour period. The reaction was allowed to proceed for a further one hour after the final addition had been made. The pH of the solution was adjusted to 3 with 5N HCl. A precipitate formed which was removed from the reaction by centrifugation.
Fluorescence HIV-1 Protease Inhibitor Assay Procedure.
To each well of a round bottom, 96-well plate is added 20 μl of the Enzyme Solution followed by 10 μl of the compound to be evaluated in 20% aqueous DMSO. Purified HIV-1 protease was obtained as described below. The solution is incubated for one hour at room temperature and then 20 μl of a solution of the substrate N^α -Biotin-[…]N^e -FITC)-OH, in MES-ALB buffer (1.5 μl/ml) is added to each well. The solutions are incubated for 16 hours at room temperature and thereafter to each well is added 150 μl of MES-ALB buffer.
To each well of a 96-well Pandex plate is added 25 μl of the Avidin Coated Beads Solution. Next, 25 μl of the diluted incubation solutions, described above, are added to each well of the Pandex plate. The solutions are mixed well and the plates are loaded into a Pandex® machine, washed, evacuated and read. Sample detection was performed by excitation at 485 nm and reading the resulting epifluorescence at 535 nm.
A culture of E. coli K12 L507/pHP10D was grown to mid-log phase at 32° C. in LB media containing 12.5 μg/ml tetracycline. The cultivation temperature was quickly elevated to 40° C. to induce gene expression, and the cells were allowed to grow for 2.5 hours at this temperature before the culture was quickly chilled on ice. The cells were centrifuged and the cell pellet was resuspended in 20 ml 50 mmol MES buffer (pH 6.0) containing 1 mmol EDTA, 1 mmol DTT, 1 mmol PMSF, and 10% glycerol (Buffer A). Cells were lysed by sonication using a Fischer Model 300 Dismembrator and a microtip probe. […] Enzymatic activity was measured by HPLC using the synthetic peptide SQNYPIV as described in Margolin et al., Biochem. Biophys. Res. Commun., 167, 554-560 (1990); the production of the pl peptide (SQNY) was measured.
Active fractions were pooled, made 1.2M in ammonium sulfate, and applied to a hexyl agarose column (2.0×18 cm) equilibrated in Buffer A containing 1.2M ammonium sulfate. The sample, in 125 ml (1.85 mg/ml), was loaded at a flow rate of 1 ml/min at 4° C. […] The column was then washed isocratically in Buffer A for 120 min. Active fractions were pooled, concentrated to 10 ml using an Amicon stirred cell with a YM-10 membrane, and applied at 1 ml/min to a MonoS cation exchange column (1.0×10 cm) equilibrated in Buffer A. After washing isocratically for 30 min, protease was eluted using a linear gradient of 0-0.45M NaCl in Buffer A over 40 min followed by an isocratic wash with Buffer A containing 0.45M NaCl over 30 min. Chromatography was performed at 25° C.
Pooled active fractions were concentrated to 200 ul using an Amicon stirred cell and a YM-10 membrane, and the protease was then applied to a Superose 6 size exclusion column equilibrated in Buffer A containing 0.1M NaCl. The column was washed isocratically in this buffer at a flow rate of 0.5 ml/min.

[1] = purified HIV-1 protease, MES-ALB buffer pH 5.5, 1 h preincubation, 16 h with substrate, room temperature, IC50 values for Examples 2-70 are standardized relative to Ex 1

For `CC(C)(C)NC(=O)c1ccccc1C[C@@H](O)[C@H](Cc1ccccc1)NC(=O)[C@H](CC(N)=O)NC(=O)c1ccc2cc(F)cc(F)c2n1` [Example 59, [1S-(1R*, 4R*, 5S*)]-N-(1-(2-amino-2-oxoethyl)-2-oxo-3-aza-4-phenylmethyl-5-hydroxy-6-(2-(1-t-butylamino-1-oxomethyl)phenyl)hexyl)-6,8-difluoroquinolin-2-yl carboxamide], the IC50 [1] was 11.2 nM.

`CC(C)(C)NC(=O)c1ccccc1C[C@@H](O)[C@H](Cc1ccccc1)NC(=O)[C@H](CC(N)=O)NC(=O)c1cnc2ccccc2n1` [Example 20, [1S-(1R*, 4R*, 5S*)]-N-(1-(2-amino-2-oxoethyl)-2-oxo-3-aza-4-phenylmethyl-5-hydroxy-6-(2-(1-t-butylamino-1-oxomethyl)phenyl)hexyl)-2-quinoxalinyl carboxamide] gave an IC50 of 1.15 nM.

In the case of `CC(C)(C)NC(=O)c1ccccc1C[C@@H](O)[C@H](Cc1ccccc1)NC(=O)[C@H](CC(N)=O)NC(=O)NCc1cccc2ccccc12` [Example 58, [2R-(2R*, 3S*, 6S*)]-N-t-butyl-2-(2-hydroxy-3-phenylmethyl-4-aza-5-oxo-6-(2-amino-2-oxoethyl)-7-aza-8-oxo-8-(N-naphth-1-ylmethylamino)octyl)benzamide], the IC50 was 2.82 nM.

`CC(C)(C)NC(=O)c1ccccc1C[C@@H](O)[C@H](Cc1ccccc1)NC(=O)[C@H](CC(N)=O)NC(=O)c1ccc2ccccc2[n+]1[O-]` [Example 7, [1S-(1R*, 4R*, 5S*)]-N-(1-(2-amino-2-oxoethyl)-2-oxo-3-aza-4-phenylmethyl-5-hydroxy-6-(2-(1-t-butylamino-1-oxomethyl)phenyl)hexyl)-1-oxo-2-quinolinyl carboxamide] showed an IC50 of 28.8 nM.

Molecule `CCC(C)[C@H](NC(=O)N(C)Cc1ccc2ccccc2n1)C(=O)N[C@@H](Cc1ccccc1)[C@H](O)Cc1ccccc1C(=O)NC(C)(C)C` (stereo partly drawn) [Example 39, [2R-(2R*, 3S*, 6S*)]-N-t-butyl-2-(2-hydroxy-3-phenylmethyl-4-aza-5-oxo-6-(1-methylpropyl)-7-aza-8-oxo-8-(N-methyl-N-quinolin-2-ylmethylamino)octyl)benzamide] has an IC50 of 5.06 nM.

For `CC(C)(C)NC(=O)c1ccccc1C[C@@H](O)[C@H](Cc1ccccc1)NC(=O)[C@H](CC(N)=O)NC(=O)c1ccccn1` [Example 29, [1S-(1R*, 4R*, 5S*)]-N-(1-(2-amino-2-oxoethyl)-2-oxo-3-aza-4-phenylmethyl-5-hydroxy-6-(2-(1-t-butylamino-1-oxomethyl)phenyl)hexyl)-2-pyridyl carboxamide], the IC50 was 129 nM.

In the case of `CC(C)(C)NC(=O)c1ccccc1C[C@@H](O)[C@H](Cc1ccccc1)NC(=O)[C@H](CC(N)=O)NC(=O)Cc1ccc2ccccc2c1` [Example 31, [1S-(1R*, 4R*, 5S*)]-N-(1-(2-amino-2-oxoethyl)-2-oxo-3-aza-4-phenylmethyl-5-hydroxy-6-(2-(1-t-butylamino-1-oxomethyl)phenyl)hexyl)-2-naphthyl acetamide], the IC50 was 11.4 nM.

Work on `CC(C)(C)NC(=O)c1ccccc1C[C@@H](O)[C@H](Cc1ccccc1)NC(=O)[C@H](CC(=O)NCc1ncc[nH]1)NC(=O)c1ccc2ccccc2n1` [Example 46, [1S-(1R*, 4R*, 5S*)]-N-(1-(2-(N-2-imidazolylmethyl)amino)-2-oxoethyl)-2-oxo-3-aza-4-phenylmethyl-5-hydroxy-6-(2-(1-t-butylamino-1-oxomethyl)phenyl)hexyl)-2-quinolinyl carboxamide] yielded an IC50 of 1.88 nM.

`CC(C)(C)NC(=O)c1ccccc1C[C@@H](O)[C@H](Cc1ccccc1)NC(=O)[C@H](CC(N)=O)NC(=O)c1cc2ccccc2[nH]1` [Example 21, [1S-(1R*, 4R*. 5S*)]-N-(1-(2-amino-2-oxoethyl)-2-oxo-3-aza-4-phenylmethyl-5-hydroxy-6-(2-(1-t-butylamino-1-oxomethyl)phenyl)hexyl)-2-indolyl carboxamine] was tested, and the IC50 was 4.18 nM.

`CC(C)(C)NC(=O)c1ccccc1C[C@@H](O)[C@H](Cc1ccccc1)NC(=O)[C@H](CC(=O)NCc1c[nH]c2ccccc12)NC(=O)c1ccc2ccccc2n1` [Example 70, [1S-(1R*, 4R*, 5*)]-N-(1-(2-(N-indol-3-ylmethyl)amino)-2-oxoethyl)-2-oxo-3-aza-4-phenylmethyl-5-hydroxy-6-(2-(1-t-butylamino-1-oxomethyl)phenyl)hexyl)-2-quinolinyl carboxamide] gave an IC50 of 0.785 nM.

Molecule `CC(C)(C)NC(=O)c1ccccc1C[C@@H](O)[C@H](Cc1ccccc1)NC(=O)[C@H](CC(=O)NCc1ccccn1)NC(=O)c1ccc2ccccc2n1` [Example 45, [1S-[1R*, 4R*, 5S*)]-N-(1-(2-(N-2-pyridylmethyl)amino)-2-oxoethyl]-2-oxo-3-aza-4-phenylmethyl-5-hydroxy-6-(2-(1-t-butylamino-1-oxomethyl)phenyl)hexyl)-2quinolinyl carboxamide] has an IC50 of 1.26 nM.

Work on `Cc1cccc2ccc(C(=O)N[C@@H](CC(N)=O)C(=O)N[C@@H](Cc3ccccc3)[C@H](O)Cc3ccccc3C(=O)NC(C)(C)C)nc12` [Example 24, [1S-(1R*, 4R*, 5S*)]-N-(1-(2-amino-2-oxoethyl)-2-oxo-3-aza-4-phenylmethyl-5-hydroxy-6-(2-(1-t-butylamino-1-oxomethyl)phenyl)hexyl)-8-methylquinolin-2-yl carboxamide] yielded an IC50 of 0.481 nM.

In the case of `CC(C)(C)NC(=O)c1ccccc1C[C@@H](O)[C@H](Cc1ccccc1)NC(=O)[C@H](CC(N)=O)NC(=O)c1cc2ccccc2cn1` [Example 30, [1S-(1R*, 4R*, 5S*)]-N-(1-(2-amino-2-oxoethyl)-2-oxo-3-aza-4-phenylmethyl-5-hydroxy-6-(2-(1-t-butylamino-1-oxomethyl)phenyl)hexyl)-3-isoquinolinyl carboxamide], the IC50 was 11.8 nM.

`CC(C)(C)NC(=O)c1ccccc1C[C@@H](O)[C@H](Cc1ccccc1)NC(=O)[C@H](CCC(N)=O)NC(=O)c1ccc2ccccc2c1` [Example 56, [1S-(1R*, 4R*, 5S*)]-N-(1-(3-amino-3-oxopropyl) -2-oxo-3-aza-4-phenylmethyl-5-hydroxy-6-(2-(1-t-butylamino-1-oxomethyl)phenyl)hexyl)-2-naphthyl carboxamide] was tested, and the IC50 was 38.9 nM.

Molecule `Cc1cc(C(=O)N[C@@H](CC(N)=O)C(=O)N[C@@H](Cc2ccccc2)[C@H](O)Cc2ccccc2C(=O)NC(C)(C)C)nc2ccccc12` [Example 26, [1S-(1R*, 4R*, 5S*)]-N-(1-(2-amino-2-oxoethyl)-2-oxo-3-aza-4-phenylmethyl-5-hydroxy-6-(2-(1-t-butylamino-1-oxomethyl)phenyl)hexyl)-4-methylquinolin-2-yl carboxamide] has an IC50 of 1.12 nM.

For “[1S-(1R*, 4R*, 5S*)]-N-(1-(2-amino-2-oxoethyl)-2-oxo-3-aza-4-phenylmethyl-5-hydroxy-6-(2- (1-t-butylamino-1-oxomethyl)phenyl)hexyl)-2(6, 7, 8, 9-tetrahydronaphthyl) carboxamide [Example 33]”, the “Fluorescence Assay IC50” value [1] was 1.4 ng/mL.

`CC(C)(C)NC(=O)c1ccccc1C[C@@H](O)[C@H](Cc1ccccc1)NC(=O)[C@H](CC(N)=O)NC(=O)c1ccc2ccccc2c1` [Example 19, [1S-(1R*, 4R*, 5S*)]-N-(1-(2-amino-2-oxoethyl)-2-oxo-3-aza-4-phenylmethyl-5-hydroxy-6-(2-(1-t-butylamino-1-oxomethyl)phenyl)hexyl)-2-naphthyl carboxamide] showed an IC50 of 3.45 nM.
